This is an account of results in patent publication US12336981B2, “Compounds and compositions for the inhibition of NAMPT” (Valo Health, Inc., priority 2010, dated 2025).

SMILES strings stand for the structures. Where two headings read alike, the source gives them in different places.

For one assay, the target named is T1, NAMPT (Homo sapiens, UniProt P43490).
T1 construct: His tag; host or cells: E. coli
Nature of the assay: Biochemical inhibition assay: NAMPT enzymatic reaction, NMN quantified by mass spectrometry. Particulars: read-out: Biochem IC50. In short, it runs like this: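 Inhibition of E. coli-expressed His-tagged human NAMPT, measured as NMN formation by mass spectrometry after a 30 min room-temperature reaction containing 1 μM NAM, 100 μM PRPP and 2.5 mM ATP.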

In another assay the test system is A2780 cells. Put plainly: In-vitro cell proliferation assay (SRB), A2780 cells. Particulars: Homo sapiens, A2780, 72 h, A2780 cells, 72 hours, read-out: A2780 IC50. The format is cell-based. Put shortly:
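Growth inhibition was derived from background-corrected SRB absorbance (570 nm), measured on cells fixed in 6% TCA after three days of compound treatment under 5% CO2 at 37° C.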

The IC50 is the midpoint of a concentration-inhibition curve.

T1 sequence (P43490 whole entry): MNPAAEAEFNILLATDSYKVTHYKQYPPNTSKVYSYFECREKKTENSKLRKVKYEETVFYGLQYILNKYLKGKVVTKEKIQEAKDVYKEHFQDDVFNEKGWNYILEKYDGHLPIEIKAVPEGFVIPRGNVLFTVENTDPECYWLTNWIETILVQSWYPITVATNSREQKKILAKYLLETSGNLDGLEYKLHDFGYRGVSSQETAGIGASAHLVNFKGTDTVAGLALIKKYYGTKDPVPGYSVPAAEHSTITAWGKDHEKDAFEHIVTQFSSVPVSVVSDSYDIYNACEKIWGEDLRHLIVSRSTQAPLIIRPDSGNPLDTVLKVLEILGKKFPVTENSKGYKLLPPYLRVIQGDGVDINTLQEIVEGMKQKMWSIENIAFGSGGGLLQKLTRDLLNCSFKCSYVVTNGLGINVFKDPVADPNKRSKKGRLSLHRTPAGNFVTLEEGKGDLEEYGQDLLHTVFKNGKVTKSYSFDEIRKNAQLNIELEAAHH

As to `Cc1ccc(S(=O)(=O)c2ccc(CNC(=O)c3ccc4nccn4c3)cc2)cc1` [N-({4-[(4-methylbenzene)sulfonyl]phenyl}methyl)imidazo[1,2-a]pyridine-6-carboxamide], the IC50 on NAMPT (NAMPT enzymatic reaction) was 17.6 nM; with A2780 cells (SRB), 12 nM.
With `Cc1ccc(S(=O)(=O)c2ccc(CNC(=O)c3cc4ccncc4s3)cc2)cc1` [N-({4-[(4-methylbenzene)sulfonyl]phenyl}methyl)thieno[2,3-c]pyridine-2-carboxamide], the IC50 at NAMPT (NAMPT enzymatic reaction) and in the assay with A2780 cells (SRB assay) was 5 nM each time.
Regarding `O=C(NCc1ccc(S(=O)(=O)c2ccc(-c3ccccc3)cc2)cc1)c1ccc2ncsc2c1` [N-({4-[(4-phenylbenzene)sulfonyl]phenyl}methyl)-1,3-benzothiazole-6-carboxamide], the IC50 at NAMPT (NAMPT enzymatic reaction) was 20.7 nM; in the assay on A2780 cells (SRB) it was 100 to 1000 nM.
In the case of `O=C(NCc1ccc(S(=O)(=O)c2ccc(-c3ccccc3)cc2)cc1)c1cc2cnccc2[nH]1` [N-({4-[(4-phenylbenzene)sulfonyl]phenyl}methyl)-1H-pyrrolo[3,2-c]pyridine-2-carboxamide], the IC50 at NAMPT (NAMPT enzymatic reaction) was determined as 31 nM; in the assay with A2780 cells (SRB), 13.3 nM.
In the case of `O=C(NCc1ccc(S(=O)(=O)c2ccc(-c3ccccc3)cc2)cc1)c1cc2ccncc2o1` [N-({4-[(4-phenylbenzene)sulfonyl]phenyl}methyl)furo[2,3-c]pyridine-2-carboxamide], the IC50 was found to be 3.7 nM at NAMPT (NAMPT enzymatic reaction) and 6.9 nM in the assay with A2780 cells (SRB).
Take `O=C(NCc1ccc(S(=O)(=O)CCCCc2ccccc2)cc1)c1cc2cnccc2[nH]1` [N-({4-[(4-phenylbutane)sulfonyl]phenyl}methyl)-1H-pyrrolo[3,2-c]pyridine-2-carboxamide]: the values for the IC50 on NAMPT (NAMPT enzymatic reaction) and in the assay on A2780 cells (SRB) were 216 nM and 71.5 nM, respectively.
Consider `O=C(NCc1ccc(S(=O)(=O)Nc2cccc3c2CCCC3)cc1)c1cc2cnccc2[nH]1` [N-({4-[(5,6,7,8-tetrahydronaphthalen-1-yl)sulfamoyl]phenyl}methyl)-1H-pyrrolo[3,2-c]pyridine-2-carboxamide], for which the 50% inhibitory concentration (IC50) at NAMPT (NAMPT enzymatic reaction) and in the assay with A2780 cells (SRB assay) was over 30000 nM each time.
On to `COc1ccc(C(C)=O)cc1S(=O)(=O)c1ccc(CNC(=O)c2cc3cnccc3[nH]2)cc1` [N-({4-[(5-acetyl-2-methoxybenzene)sulfonyl]phenyl}methyl)-1H-pyrrolo[3,2-c]pyridine-2-carboxamide], for which the IC50 on NAMPT (NAMPT enzymatic reaction) was 20 nM; with A2780 cells (SRB assay), 6 nM.
In the case of `COc1ccc(C(C)=O)cc1S(=O)(=O)c1ccc(CNC(=O)c2ccc3nccn3c2)cc1` [N-({4-[(5-acetyl-2-methoxybenzene)sulfonyl]phenyl}methyl)imidazo[1,2-a]pyridine-6-carboxamide], the 50% inhibitory concentration (IC50) at NAMPT (NAMPT enzymatic reaction) is 37.9 nM; in the assay with A2780 cells (SRB) it was 12.7 nM.
Regarding `O=C(NCc1ccc(S(=O)(=O)c2cc(Cl)ccc2O)cc1)c1ccc2nccn2c1` [N-({4-[(5-chloro-2-hydroxybenzene)sulfonyl]phenyl}methyl)imidazo[1,2-a]pyridine-6-carboxamide], the IC50 on NAMPT (NAMPT enzymatic reaction) came out at 14 nM; with A2780 cells (SRB) it was 168 nM.
`COc1ccc(Cl)cc1S(=O)(=O)c1ccc(CNC(=O)c2cc3cnccc3[nH]2)cc1` [N-({4-[(5-chloro-2-methoxybenzene)sulfonyl]phenyl}methyl)-1H-pyrrolo[3,2-c]pyridine-2-carboxamide]: the IC50 on NAMPT (NAMPT enzymatic reaction) was determined as 6 nM; with A2780 cells (SRB assay) it was 2 nM.
With `COc1ccc(Cl)cc1S(=O)(=O)c1ccc(CNC(=O)c2cc3ccncc3s2)cc1` [N-({4-[(5-chloro-2-methoxybenzene)sulfonyl]phenyl}methyl)thieno[2,3-c]pyridine-2-carboxamide], the 50% inhibitory concentration (IC50) at NAMPT (NAMPT enzymatic reaction) turned out to be 4 nM; in the assay on A2780 cells (SRB assay) it was 1.3 nM.
For `COc1ccc(Cl)cc1NS(=O)(=O)c1ccc(CNC(=O)c2cc3cnccc3[nH]2)cc1` [N-({4-[(5-chloro-2-methoxyphenyl)sulfamoyl]phenyl}methyl)-1H-pyrrolo[3,2-c]pyridine-2-carboxamide], the figures for the IC50 on NAMPT (NAMPT enzymatic reaction) and in the assay on A2780 cells (SRB assay) were 197 nM and 18000 nM, respectively.
Take `Cc1ccc(Cl)cc1S(=O)(=O)c1ccc(CNC(=O)c2cnc3[nH]ncc3c2)cc1` [N-({4-[(5-chloro-2-methylbenzene)sulfonyl]phenyl}methyl)-1H-pyrazolo[3,4-b]pyridine-5-carboxamide]: the results for the IC50 on NAMPT (NAMPT enzymatic reaction) and in the assay on A2780 cells (SRB) were 22.7 nM and 13.9 nM, respectively.
The matching figures for `Cc1ccc(Cl)cc1S(=O)(=O)c1ccc(CNC(=O)c2ccc3nccn3c2)cc1` [N-({4-[(5-chloro-2-methylbenzene)sulfonyl]phenyl}methyl)imidazo[1,2-a]pyridine-6-carboxamide]: 1.9 nM and 3.7 nM.
For `CCCOc1ccc(Cl)cc1S(=O)(=O)c1ccc(CNC(=O)c2cnc3[nH]ncc3c2)cc1` [N-({4-[(5-chloro-2-propoxybenzene)sulfonyl]phenyl}methyl)-1H-pyrazolo[3,4-b]pyridine-5-carboxamide] the same measures were 49.2 nM and 25.1 nM.
On to `COc1ccc(F)cc1S(=O)(=O)c1ccc(CNC(=O)c2cc3cnccc3[nH]2)cc1` [N-({4-[(5-fluoro-2-methoxybenzene)sulfonyl]phenyl}methyl)-1H-pyrrolo[3,2-c]pyridine-2-carboxamide], for which the 50% inhibitory concentration (IC50) at NAMPT (NAMPT enzymatic reaction) was 5 nM; in the assay with A2780 cells (SRB assay) it was 3 nM.
Take `COc1ccc(F)cc1S(=O)(=O)c1ccc(CNC(=O)c2ccc3nccn3c2)cc1` [N-({4-[(5-fluoro-2-methoxybenzene)sulfonyl]phenyl}methyl)imidazo[1,2-a]pyridine-6-carboxamide]: the IC50 at NAMPT (NAMPT enzymatic reaction) was found to be 22 nM; in the assay with A2780 cells (SRB), 6.65 nM.
With `COc1ccc(F)cc1NS(=O)(=O)c1ccc(CNC(=O)c2cc3cnccc3[nH]2)cc1` [N-({4-[(5-fluoro-2-methoxyphenyl)sulfamoyl]phenyl}methyl)-1H-pyrrolo[3,2-c]pyridine-2-carboxamide], the IC50 on NAMPT (NAMPT enzymatic reaction) is 232 nM; in the assay on A2780 cells (SRB assay), over 30000 nM.
Turning to `COc1ccc(F)cc1NS(=O)(=O)c1ccc(CNC(=O)c2ccc3ncccc3c2)cc1` [N-({4-[(5-fluoro-2-methoxyphenyl)sulfamoyl]phenyl}methyl)quinoline-6-carboxamide], the half-maximal inhibitory concentration (IC50) on NAMPT (NAMPT enzymatic assay) was 66 nM; in the assay with A2780 cells (SRB), 1000 to 10000 nM.
As for `Cc1ccc(F)cc1S(=O)(=O)c1ccc(CNC(=O)c2cnc3[nH]ncc3c2)cc1` [N-({4-[(5-fluoro-2-methylbenzene)sulfonyl]phenyl}methyl)-1H-pyrazolo[3,4-b]pyridine-5-carboxamide], the values for the IC50 at NAMPT (NAMPT enzymatic reaction) and in the assay with A2780 cells (SRB) were 20.4 nM and 59.7 nM, respectively.
In the case of `Cc1ccc(F)cc1S(=O)(=O)c1ccc(CNC(=O)c2cc3cnccc3[nH]2)cc1` [N-({4-[(5-fluoro-2-methylbenzene)sulfonyl]phenyl}methyl)-1H-pyrrolo[3,2-c]pyridine-2-carboxamide], the results for the IC50 at NAMPT (NAMPT enzymatic reaction) and in the assay on A2780 cells (SRB assay) were 11 nM and 7 nM, respectively.
With `Cc1ccc(F)cc1S(=O)(=O)c1ccc(CNC(=O)c2ccc3nccn3c2)cc1` [N-({4-[(5-fluoro-2-methylbenzene)sulfonyl]phenyl}methyl)imidazo[1,2-a]pyridine-6-carboxamide], the IC50 at NAMPT (NAMPT enzymatic reaction) worked out at 12.6 nM; in the assay with A2780 cells (SRB) it was 22.9 nM.
As to `Cc1ccc(F)cc1S(=O)(=O)c1ccc(CNC(=O)c2cc3ccncc3s2)cc1` [N-({4-[(5-fluoro-2-methylbenzene)sulfonyl]phenyl}methyl)thieno[2,3-c]pyridine-2-carboxamide], the results for the IC50 at NAMPT (NAMPT enzymatic reaction) and with A2780 cells (SRB assay) were 3 nM and 9.4 nM, respectively.
On to `COc1ccc(C)c(NS(=O)(=O)c2ccc(CNC(=O)c3cc4cnccc4[nH]3)cc2)c1` [N-({4-[(5-methoxy-2-methylphenyl)sulfamoyl]phenyl}methyl)-1H-pyrrolo[3,2-c]pyridine-2-carboxamide], for which the IC50 at NAMPT (NAMPT enzymatic reaction) is 51 nM; in the assay with A2780 cells (SRB assay), 13000 nM.
As for `COc1ccc(C(C)(C)C)cc1S(=O)(=O)c1ccc(CNC(=O)c2cc3cnccc3[nH]2)cc1` [N-({4-[(5-tert-butyl-2-methoxybenzene)sulfonyl]phenyl}methyl)-1H-pyrrolo[3,2-c]pyridine-2-carboxamide], the IC50 at NAMPT (NAMPT enzymatic reaction) came out at 647 nM; in the assay with A2780 cells (SRB assay), 6 nM.
For the compound `COc1ccc(C(C)(C)C)cc1S(=O)(=O)c1ccc(CNC(=O)c2ccc3nccn3c2)cc1` [N-({4-[(5-tert-butyl-2-methoxybenzene)sulfonyl]phenyl}methyl)imidazo[1,2-a]pyridine-6-carboxamide], the values for the 50% inhibitory concentration (IC50) on NAMPT (NAMPT enzymatic assay) and in the assay with A2780 cells (SRB) were 29 nM and 6.77 nM, respectively.
With `COc1ccc(C(C)(C)C)cc1S(=O)(=O)c1ccc(CNC(=O)c2cc3ccncc3s2)cc1` [N-({4-[(5-tert-butyl-2-methoxybenzene)sulfonyl]phenyl}methyl)thieno[2,3-c]pyridine-2-carboxamide], the IC50 on NAMPT (NAMPT enzymatic reaction) worked out at 15 nM; in the assay on A2780 cells (SRB assay) it was 4.6 nM.
In the case of `Cc1ccc(Cl)c(S(=O)(=O)c2ccc(CNC(=O)c3cnc4[nH]ncc4c3)cc2)c1F` [N-({4-[(6-chloro-2-fluoro-3-methylbenzene)sulfonyl]phenyl}methyl)-1H-pyrazolo[3,4-b]pyridine-5-carboxamide], the IC50 at NAMPT (NAMPT enzymatic assay) was 112 nM; in the assay with A2780 cells (SRB), 100 to 1000 nM.
The matching figures for `Cc1ccc(Cl)c(S(=O)(=O)c2ccc(CNC(=O)c3cc4ccncc4o3)cc2)c1F` [N-({4-[(6-chloro-2-fluoro-3-methylbenzene)sulfonyl]phenyl}methyl)furo[2,3-c]pyridine-2-carboxamide]: 21.9 nM and 29.3 nM.
In the case of `O=C(NCc1ccc(S(=O)(=O)Nc2cccc3cccnc23)cc1)c1cc2cnccc2[nH]1` [N-({4-[(quinolin-8-yl)sulfamoyl]phenyl}methyl)-1H-pyrrolo[3,2-c]pyridine-2-carboxamide], the IC50 worked out at 75 nM at NAMPT (NAMPT enzymatic reaction) and 1480 nM with A2780 cells (SRB assay).
For `O=C(NCc1ccc(S(=O)(=O)c2cccc(Cl)c2)cc1)c1cc2ccncc2o1` [N-({4-[{3-chlorobenzene)sulfonyl]phenyl}methyl)furo[2,3-c]pyridine-2-carboxamide], the IC50 is 6 nM on NAMPT (NAMPT enzymatic reaction) and 3.3 nM with A2780 cells (SRB).
